In PubChem BioAssay AID2305 (GlaxoSmithKline (GSK), 2010):
Where “and” joins values, the source holds several entries; their conditions need not be identical. Identical values can stand only once.

test system: P. falciparum 3D7 growth, pLDH absorbance; test: blood-stage malaria parasite growth potency – strain 3D7, dose response (AID 2305)

| Compound | IC50 |
| --- | --- |
| Cc1ccc(NC(=O)c2ccc(-c3cc4cc(Cl)c(Cl)cc4[nH]3)cc2)cc1OCCN1CCCC1 | 990 nM |
| CCCCCN1CCCN(Cc2cccc(NC(=O)c3ccc(Cl)c(Cl)c3)c2)CC1 | 930 nM |
| c1cnc2ccc(NCc3ccc(-c4ccc(CNC5CCCC5)cc4)cc3)cc2c1 | 870 nM |
| COC1CCC(C(=O)Nc2ccc(-c3cccc(-c4nc5ccc(C(F)(F)F)cc5[nH]4)c3)cc2)CC1 (stereo not given) | 550 nM |
| CC(=O)N(C)c1cccc(C(=O)Nc2ccc(-c3cccc(-c4nc5c(C)cccc5[nH]4)c3)cc2)c1 | 650 nM |
| CC(C)CCN1CCCN(Cc2cccc(NC(=O)c3ccc(-c4ccccc4)cc3)c2)CC1 | 890 nM |
| CC(C)c1ccc(NC(=O)c2ccc(NCCCN(C)Cc3ccccc3)c([N+](=O)[O-])c2)cc1 | 680 nM |
| N#Cc1cccc(NC(=O)c2ccc(S(=O)(=O)NCC3CCCN3CC3CCCCC3)cc2)c1 (stereo not given) | 1050 nM |
| CC(C)CN1CCCN(Cc2cccc(NC(=O)c3ccc(Cl)c(Cl)c3)c2)CC1 | 890 nM |
| CN(C)Cc1c(O)ccc2oc(Cc3ccccc3)cc12 | 910 nM |
| COc1cc(-c2nc3c4ccccc4c4ccccc4c3[nH]2)cc(OC)c1OC | 850 nM |
| Cc1cc(=O)[nH]c(-n2nc(C)cc2NC(=O)CC(c2ccccc2)c2ccccc2)n1 | 1100 nM |
| CC1CN(Cc2ccccc2)CCN1c1ccc(NC(=O)c2cccs2)cc1 (stereo not given) | 280 nM |
| Fc1ccc(-c2cncc(Nc3ccncc3)n2)cc1 | 1320 nM |
| Cc1cccc2[nH]c(-c3ccc(-c4cccc(CNCCc5ccncc5)c4)s3)nc12 | 140 nM |
| C=CCC(C(=O)Nc1ccnc2ccc(OC)cc12)C1CCN(CCCCCCC)CC1 (stereo not given) | 240 nM |
| O=C(NCCCCN1CCC(c2ccc([N+](=O)[O-])cc2)CC1)c1ccc(NC(=O)c2ccc(Cl)cc2)cc1 | 760 nM |
| CN1CCC(N2CCN(Cc3ccc(-c4cccc(-c5nc6ccc(F)cc6[nH]5)c4)cc3)CC2)CC1 | 170 nM |
| CCCC(=O)Nc1ccc(OCCN(Cc2ccccc2OC(F)(F)F)c2ccc(C(F)(F)F)c(C#N)c2)cc1 | 790 nM |
| O=C(N[C@H]1CCCC[C@H]1C(=O)O)c1ccccc1 | 780 nM |
| Cc1cc(NC(=O)Nc2ccc3ccn(C)c3c2)c2ccccc2n1 | 210 nM |
| CC(=O)C1(c2ccccc2)CCN(CCC2(c3ccc(Cl)c(Cl)c3)CN(C(=O)Nc3cccc(C(F)(F)F)c3)CCO2)CC1 (stereo not given) | 1050 nM |
| CCN(CCCN1CCCCC1)c1cc(C)nc(Nc2ccc(Cl)c(C(F)(F)F)c2)n1 | 170 nM |
| O=C(NCCCCN1CC=C(c2ccc3c(c2OCc2ccccc2)CCCC3)CC1)c1ccc(-c2ccc(C(F)(F)F)cc2)cc1 | 300 nM |

| Compound | IC50 |
| --- | --- |
| CC(C)(C)c1ccc(CN2CCCCC(NC(=O)c3cc(-c4ccccc4Cl)cs3)C2)cc1 (stereo not given) | 1120 nM |
| COC(=O)c1cccc(CNCc2ccc(-c3ccc(-c4nc5c(C)cccc5[nH]4)s3)cc2)c1 | 400 nM |
| Cc1nc(/N=C(\N)NC(=O)NC2CCCCC2)nc2ccccc12 | 790 nM |
| Cc1cccc(C)c1CNc1cccc(-c2nc(C)c(C)[nH]2)c1 | 880 nM |
| O=C(Nc1cccc(-c2nc3ccccc3[nH]2)c1)c1ccc(-c2cccc([N+](=O)[O-])c2)o1 | 150 nM |
| O=C(/C=C/c1ccc(Cl)c(Cl)c1)NC1CCN(CCCNC(=O)c2cccc(Cl)c2)CC1 | 660 nM |
| CC(C)Cn1c(Sc2ccc(C#N)c([N+](=O)[O-])c2)nnc1-c1ccccc1Cl | 900 nM |
| COc1ccc2ncc(F)c(CCN3C[C@H](CNCc4cc(C#N)c5c(c4)OCCO5)[C@H](O)C3)c2n1 | 580 nM |
| CCCCCCCC1CC(CC(=O)Nc2ccnc3ccc(OC)cc23)CN1 (stereo not given) | 510 nM |
| Oc1ccc(CCNCCCCCCNCCc2ccc(Cl)cc2)c(Cl)c1O | 780 nM |
| COc1ccc(C2CCN(CCCNC(=O)c3ccc(NC(=O)c4ccc(Cl)cc4)cc3)CC2)c(OC)c1 | 760 nM |
| CC(C)(C)c1ccc(CNC(=O)c2ccc(-c3nc4ccc(Cl)cc4[nH]3)cc2)cc1 | 820 nM |
| CCOc1cc(C(C)C)ccc1C1CCN(CCCCNC(=O)c2ccc(NC(=O)c3ccc(Cl)cc3)cc2)CC1 | 810 nM |
| CCOc1cc(C(=O)NC2CC(C)(C)NC(C)(C)C2)ccc1-c1cc2cc(Cl)c(Cl)cc2[nH]1 | 770 nM |
| Nc1c(Cl)cc(C(O)CNCCCCCCOCCc2ccc(CO)s2)cc1Cl (stereo not given) | 1050 nM |
| c1cc(CN2CCN(CCN3CCOCC3)CC2)cc(-c2csc(-c3nc4ccccc4[nH]3)c2)c1 | 450 nM |
| CN(C)CCC(O)C=C(c1ccc(Cl)cc1)c1ccc(Cl)cc1 (stereo not given) | 950 nM |
| CN(C)c1ccc(CN2CCC(NC(=O)c3ccc(-c4ccccc4F)s3)CC2)cc1 | 1120 nM |
| COc1ccc(OCc2ccccn2)c(C2CCN(CCCCNC(=O)c3ccc(NC(=O)c4ccc(Cl)cc4)cc3)CC2)c1 | 760 nM |
| O=C(/C=C/c1ccc(Cl)c(Cl)c1)NCCCCCN1CCCN(C(=O)Nc2cc(Cl)cc(Cl)c2)CC1 | 790 nM |
| O=C(Nc1ccc(Cl)cc1)Nc1ccc(-c2csc(-c3nc4ccccc4[nH]3)c2)cc1 | 800 nM |
| O=S(=O)(NCCN1CCCC1)c1ccc(-c2cccc(CNC3Cc4ccccc4C3)c2)s1 | 750 nM |
| O=C(Nc1cccc(Cl)c1)N[C@H]1CCN(Cc2ccc(OCCCN3CCCCC3)cc2)C1 | 730 nM |
| CN=C(NO)NCCN(C)C | 1180 nM |

| Compound | IC50 |
| --- | --- |
| Cc1cccc2[nH]c(-c3ccc(-c4ccc(CNCC5CCCO5)cc4)cc3)nc12 (stereo not given) | 680 nM |
| Cc1cc(NC(=O)c2coc3cc(F)c(N4C[C@@H](C)N(C)[C@@H](C)C4)cc23)ccc1-n1ccnc1 | 840 nM |
| Cc1nc2ccc(F)cc2n1C1CCN(C(=O)Cc2ccc(F)c(F)c2)CC1 | 1410 nM |
| COc1ccc(C(=O)Nc2cc(Br)c3c(c2)CNCC3)cc1C(F)(F)F | 1070 nM |
| Cc1cc(N[C@@H](Cc2ccccc2)C(=O)NCCc2ccccc2)nc(NCCc2cccs2)n1 | 710 nM |
| Nc1ncc(Cc2cc(Cl)c(N)c3ncccc23)c(N)n1 | 1120 nM |
| CC(C)CN1C(=O)C(c2ccc(F)c(F)c2)=C(O)C1c1ccccc1 (stereo not given) | 190 nM |
| COc1cccc(-c2csc(C(=O)NCC3CCN(Cc4ccc(C(C)(C)C)cc4)C3)c2)c1 (stereo not given) | 1180 nM |
| CCOC(=O)c1c(C)noc1Nc1ccc(OC)cc1 | 670 nM |
| Nc1c(I)cc(C(=O)Nc2ccc3nc4c(c(N)c3c2)CCCC4)cc1I | 140 nM |
| CCCCn1c(Sc2ccc(C#N)c([N+](=O)[O-])c2)nnc1-c1ccc(OC)cc1 | 1030 nM |
| O=S1N=C(NCCCN(Cc2cccs2)c2ccccn2)C(NCc2ccccc2)=N1 (stereo not given) | 310 nM |
| Fc1ccc2nc(-c3ccc(-c4ccc(CN5CCN(c6ccncc6)CC5)cc4)cc3)[nH]c2c1 | 250 nM |
| CCOc1ccc(OCC)c(N2CCN(CCCCNC(=O)c3ccc(NC(=O)c4ccc(Cl)cc4)cc3)CC2)c1 | 590 nM |
| CC(C)CCN1CCCN(Cc2cccc(NC(=O)c3ccc(Cl)c(Cl)c3)c2)CC1 | 1020 nM |
| Cc1cc(N(C)C)nc(Nc2ccc(NC(=O)c3c(F)cccc3Cl)cc2)n1 | 1090 nM |
| CN1CCN(Cc2cc3cc(NC(=O)/C=C/c4ccc(Cl)cc4)ccc3s2)CC1 | 770 nM |
| O=C(Nc1ccc2ccccc2n1)c1ccccc1-c1ccccc1 | 440 nM |
| Cc1[nH]c(C)c(-c2ccc(Oc3cc(Cl)cc(Cl)c3)cc2)c(=O)c1Br | 240 nM |
| O=C(COc1ccccc1)N(Cc1ccc(-c2ccc(CNC3Cc4ccccc4C3)cc2)cc1)C1CCNCC1 | 1020 nM |
| O=C(C=Cc1cccc(Cl)c1Cl)NC1CCC(CN2CCC(c3c[nH]c4ccccc34)CC2)CC1 (stereo not given) | 680 nM and 1140 nM |
| c1ccc2c(NCCCCCCCCCNc3ccnc4ccccc34)ccnc2c1 | 120 nM |
